Measured values reported in ChEMBL document CHEMBL2046380, “Synthesis and structure-activity relationship of disubstituted benzamides as a novel class of antimalarial agents” (Bioorg Med Chem Lett, 2012).
pEC50: −log10 of the molar value.

Assays:
Plasmodium falciparum [1] = experiment: Antimalarial activity against […] incubated for 72 hrs by DNA staining based MARK1 growth inhibition assay; type: functional, organism-based
Plasmodium falciparum [2] = experiment: Antimalarial activity against chloroquine-sensitive Plasmodium falciparum 3D7 incubated for 72 hrs by DNA staining based MAR3D7 growth inhibition assay; type: functional, organism-based; conditions: 3D7, 72 h
HepG2 = experiment: Cytotoxicity against human HepG2 cells after 72 hrs by […] CellTiterGlo reagent assay; type: cell-based; conditions: HepG2, 72 h
Raji = experiment: Cytotoxicity against human Raji cells after 72 hrs by […] CellTiterGlo reagent assay; type: cell-based
BJ = experiment: Cytotoxicity against human BJ cells after 72 hrs by […] CellTiterGlo reagent assay; type: cell-based
HEK293 = experiment: Cytotoxicity against human HEK293 cells after 72 hrs by […] CellTiterGlo reagent assay; type: cell-based; conditions: HEK293, 72 h

Structure (SMILES)	pEC50 (Plasmodium falciparum [1])	pEC50 (Plasmodium falciparum [2])	pEC50 (HepG2)	pEC50 (Raji)	pEC50 (BJ)	pEC50 (HEK293)
CCOC(=O)CCCCCOc1cccc(CN(C(=O)c2ccc(-c3cc(C(F)(F)F)cc(C(F)(F)F)c3)cc2)C(C)C)c1	< 4.82	< 4.82	< 4.58	< 4.58	< 4.58	< 4.58
Cc1nnc(-c2cccc(-c3ccc(C(=O)N(Cc4cccc(OCCCCCC(=O)O)c4)C(C)C)cc3)c2)o1	< 4.82	< 4.82	< 4.58	< 4.58	< 4.58	< 4.58
CC(C)N(Cc1cccc(OCCCCCC(=O)O)c1)C(=O)c1ccc(-c2ccoc2)cc1	< 4.82	< 4.82	< 4.58	< 4.58	< 4.58	< 4.58
CCOC(=O)CCCCCOc1cccc(CN(C(=O)c2ccc(-c3ccsc3)cc2)C(C)C)c1	< 4.82	< 4.82	< 4.58	< 4.58	< 4.58	< 4.58
CCOC(=O)CCCCCOc1cccc(CN(C(=O)c2ccc(-c3cccc(CC#N)c3)cc2)C(C)C)c1	< 4.82	< 4.82	< 4.58	< 4.58	< 4.58	< 4.58
CCOC(=O)CCCCCOc1cccc(CN(C(=O)c2ccc(-c3cccc(F)c3)cc2)C(C)C)c1	< 4.82	< 4.82	< 4.58	< 4.58	< 4.58	< 4.58
CCOC(=O)CCCCCOc1cccc(CN(C(=O)c2ccc(-c3cccc(Cl)c3)cc2)C(C)C)c1	< 4.99	< 4.99	< 4.73	< 4.73	< 4.73	< 4.73
CCOC(=O)CCCCCOc1cccc(CN(C(=O)c2ccc(-c3ccc(Cl)c(Cl)c3)cc2)C(C)C)c1	< 4.82	< 4.82	< 4.58	< 4.58	< 4.58	< 4.58
CCOC(=O)CCCCCOc1ccc(CO)cc1	< 4.82	< 4.82	< 4.57	< 4.57	< 4.57	< 4.57
CCOC(=O)CCCCCOc1cccc(CN(C(=O)c2ccc(-c3cccc([N+](=O)[O-])c3)cc2)C(C)C)c1	< 4.82	< 4.82	< 4.58	< 4.58	–	< 4.58
CCOC(=O)CCCCCOc1cccc(CN(C(=O)c2ccc(-c3cccc(OC)c3)cc2)C(C)C)c1	< 4.93	< 4.93	< 4.68	< 4.68	< 4.68	< 4.68
C=CCCC(=O)NCC1(c2ccc3c(c2)OCO3)OCCO1	< 5.12	< 5.12	< 4.89	< 4.89	< 4.89	< 4.89
CC(C)N(Cc1cccc(OCCCCCC(=O)O)c1)C(=O)c1ccc(-c2cccc(O)c2)cc1	< 4.82	< 4.82	< 4.58	< 4.58	< 4.58	< 4.58
CCCN(Cc1ccccc1OCCCCCC(=O)O)C(=O)c1ccc(-c2ccc3c(c2)OCO3)cc1	< 4.82	< 4.82	< 4.58	< 4.58	< 4.58	< 4.58
C=CCCC1=NCC(OC(C)=O)c2cc(OC)c(OC)cc21 (stereo not given)	< 5.12	< 5.12	< 4.89	< 4.89	< 4.89	< 4.89
CCOC(=O)CCCCCOc1cccc(CN(C(=O)c2ccc(-c3cnc(OC)nc3OC)cc2)C(C)C)c1	< 4.82	< 4.82	< 4.58	< 4.58	< 4.58	< 4.58
CCOC(=O)CCCCCOc1ccc(C=O)cc1	< 4.82	7.23	< 4.58	< 4.58	< 4.58	< 4.58
C=CCCC(=O)NC[C@H](O)c1ccc2c(c1)OCO2	< 5.12	< 5.12	< 4.89	< 4.89	< 4.89	< 4.89
CC(C)N(Cc1cccc(OCCCCCC(=O)O)c1)C(=O)c1ccc(-c2ccco2)cc1	< 4.82	< 4.82	< 4.58	< 4.58	< 4.58	< 4.58
CC(C)N(Cc1cccc(OCCCCCC(=O)O)c1)C(=O)c1ccc(-c2cccc(OCc3ccccc3)c2)cc1	< 4.82	< 4.82	< 4.58	< 4.58	< 4.58	< 4.58
CCOC(=O)CCCCCOc1cccc(CN(C(=O)c2ccc(Br)cc2)C(C)C)c1	< 4.82	< 4.82	< 4.58	< 4.58	< 4.58	< 4.58
CCOC(=O)CCCCCOc1cccc(CN(C(=O)c2ccc(-c3cccc(C(F)(F)F)c3)cc2)C(C)C)c1	< 4.82	< 4.82	< 4.58	< 4.58	–	< 4.58
